EC50 and IC50 data for 17 compounds are collected here from patent US10316017B2, “COT modulators and methods of use thereof” (Gilead Sciences, Inc., priority 2015, dated 2019).

Assay [1] deals with TNFα production in LPS-stimulated human monocytes. Briefly: Cot Monocyte TNFα Cell Based Assay. The conditions noted are these: Homo sapiens, Monocyte, read-out: EC50 TNF. The method, boiled down:
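5,000 cells/well; cmpd 1 h, 37 °C, 0.5% DMSO final; LPS 50 pg/ml, 4 h, 37 °C; media TNFα by HTRF sandwich (cryptate/XL665), RT overnight; % control vs unstimulated/stimulated wells.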

The target of assay [2] is T1, human Cot catalytic domain (30-397 amino acids) (Homo sapiens, UniProt P41279).
T1 construct: Purified recombinant human Cot catalytic domain (30-397 amino acids) was purchased from Cama Biosciences; purchased Cama Biosciences (so in the source)
Briefly: High Throughput Cot Biochemical Assay (KinEASE TR-FRET). As to conditions: read-out: IC50 HTRF. Summed up: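 First, purified human Cot (aa 30-397) at 5 nM phosphorylates an XL665-labeled STK3 peptide (1 μM) at 400 μM ATP, pH 7.0, 0.1% DMSO. Then a europium-conjugated phospho-specific antibody binds the product, giving the TR-FRET signal.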
(TR-FRET usually uses a lanthanide donor and a delayed reading to cut background.)

Where [3] appears, read: TNFα in LPS-stimulated human monocytes.
The mark [4] stands for this setting: Cot KinEASE TR-FRET (HTRF) biochemical assay, 400 μM ATP.
The mark [5] stands for this setting: Cot biochemical HTRF (KinEASE TR-FRET) assay.
Setting [6] is: LPS-stimulated human monocytes, TNFα TR-FRET.
The mark [7] stands for this setting: Cot KinEASE TR-FRET, 400 μM ATP.

Read-outs that look alike come from different tables or passages of the source. Where only a bound is given, the exact number is not on record here.

T1 sequence (P41279 30-397): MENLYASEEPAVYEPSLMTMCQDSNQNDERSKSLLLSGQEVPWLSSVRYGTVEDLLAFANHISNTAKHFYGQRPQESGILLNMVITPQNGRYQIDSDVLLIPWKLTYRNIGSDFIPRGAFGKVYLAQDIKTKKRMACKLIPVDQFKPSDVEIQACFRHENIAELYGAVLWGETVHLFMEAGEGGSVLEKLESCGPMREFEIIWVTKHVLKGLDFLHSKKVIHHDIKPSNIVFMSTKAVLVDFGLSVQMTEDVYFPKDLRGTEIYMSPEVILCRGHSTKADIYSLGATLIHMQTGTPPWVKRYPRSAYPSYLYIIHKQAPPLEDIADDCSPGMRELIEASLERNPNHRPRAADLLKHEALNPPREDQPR

Take `[2H]C(Nc1cc(Cl)c2ncc(C#N)c(NCC(C)(C)C)c2c1)(c1ccc(F)cc1)c1cn(C2CC2)cn1` (stereo not shown) [Example 344, 8-chloro-6-(((1-cyclopropyl-1H-imidazol-4-yl)(4-fluorophenyl)methyl-d)amino)-4-(neopentylamino) quinoline-3-carbonitrile]: the EC50 (in general, the midpoint of the concentration-response curve) in assay [1] (setting [3]) turned out to be 2220 nM. In addition, the IC50 (in general, the point on the concentration scale where inhibition reaches its midpoint) in assay [2] (setting [4]) was determined as 89 nM.

Consider `N#Cc1cnc2c(Cl)cc(N[C@@H](c3ccc(F)cc3)c3cn(CCCN4CCCC4)nn3)cc2c1Nc1cnc(F)c(F)c1` [Example 459], for which the concentration giving a half-maximal response (EC50) in assay [1] (setting [3]) was 454 nM. Besides, in assay [2] (setting [5]), the 50% inhibitory concentration (IC50) turned out to be 9 nM.

As to `[2H][C@](Nc1cc(Cl)c2ncc(C#N)c(Nc3cnc(F)c(F)c3)c2c1)(c1ccc(F)cc1)c1c[nH]nn1` [Example 352, (S)-8-chloro-4-((5,6-difluoropyridin-3-yl)amino)-6-(((4-fluorophenyl) (1H-1,2,3-triazol-4-yl)methyl-d)amino) quinoline-3-carbonitrile], the concentration for a half-maximal effect (EC50) in assay [1] (setting [3]) was 1290 nM. In addition, the IC50 in assay [2] (setting [4]) is 21 nM.

For `N#CCC[C@@H](Nc1c(C#N)cnc2c(C#N)cc(N[C@@H](c3ccccc3)c3cn(C4CC4)nn3)cc12)c1ccccc1` [Example 949, 4-(((R)-3-cyano-1-phenylpropyl)amino)-6-(((S)-(1-cyclopropyl-1H-1,2,3-triazol-4-yl)(phenyl)methyl)amino) quinoline-3,8-dicarbonitrile], in assay [1] (setting [6]), the EC50 was 19 nM. Also, in assay [2] (setting [7]), the concentration for half-maximal inhibition (IC50) is 1 nM.

In the case of `[2H][C@](Nc1ccc2nc(F)c(C#N)c(NCC(C)(C)C)c2c1)(c1ccc(F)cc1)c1cn(C2CC2)nn1` [Example 151, (S)-6-(((1-cyclopropyl-1H-1,2,3-triazol-4-yl)(4-fluorophenyl)methyl-d)amino)-2-fluoro-4-(neopentylamino) quinoline-3-carbonitrile], the EC50 in assay [1] (setting [3]) turned out to be 5870 nM. Further, the IC50 in assay [2] (setting [4]) was above 10000 nM.

As to `[2H][C@@](Nc1cc(Cl)c2ncc(C#N)c(N[C@@H]3[C@@H]4CCC[C@@H]43)c2c1)(c1cn(C2CC2)nn1)c1ccccc1Cl` [Example 124, 4-(((1R,5S,6s)-bicyclo [3.1.0]hexan-6-yl)amino)-8-chloro-6-(((2-chlorophenyl)(1-cyclopropyl-1H-1,2,3-triazol-4-yl)methyl-d)amino) quinoline-3-carbonitrile], in assay [1] (setting [3]), the EC50 turned out to be 218 nM. In assay [2] (setting [4]), the IC50 worked out at 14 nM.

Turning to `CC(C)(C)CNc1c(C#N)cnc2c(C#N)cc(N[C@H](c3cn(C(C)(C)C(N)=O)nn3)c3ccccc3Cl)cc12` [Example 1021, (S)-2-(4-((2-chlorophenyl) ((3,8-dicyano-4-(neopentylamino)quinolin-6-yl)amino)methyl)-1H-1,2,3-triazol-1-yl)-2-methylpropanamide], the concentration for a half-maximal effect (EC50) in assay [1] (setting [6]) was 234 nM. Also, in assay [2] (setting [7]), the concentration for half-maximal inhibition (IC50) is 4 nM.

As for `N#Cc1cnc2c(Cl)cc(N[C@@H](c3ccc(Cl)cc3)c3cn(C4CCN(C5COC5)CC4)nn3)cc2c1Nc1ccc(F)c(F)c1` [Example 723, (S)-8-chloro-6-(((4-chlorophenyl)(1-(1-(oxetan-3-yl)piperidin-4-yl)-1H-1,2,3-triazol-4-yl)methyl)amino)-4-((3,4-difluorophenyl)amino)quinoline-3-carbonitrile], in assay [1] (setting [3]), the concentration for a half-maximal effect (EC50) came out at 1300 nM. In addition, in assay [2] (setting [5]), the IC50 was found to be 217 nM.

In the case of `N#Cc1cnc2c(Cl)cc(N[C@@H](c3ccc(Cl)cc3)c3c[nH]nn3)cc2c1Nc1c(F)cccc1F` [Example 640, (S)-8-chloro-6-(((4-chlorophenyl)(1H-1,2,3-triazol-4-yl)methyl)amino)-4-((2,6-difluorophenyl)amino)quinoline-3-carbonitrile], the EC50 in assay [1] (setting [3]) was found to be 2840 nM. In addition, the IC50 in assay [2] (setting [5]) stood at 2340 nM.

As for `COC1CN(C(=O)c2cccc([C@H](Nc3cc(Cl)c4ncc(C#N)c(Nc5ccc(F)c(Cl)c5)c4c3)c3cn(C4CCN(C(C)(C)C)CC4)nn3)c2)C1` [Example 621, (S)-6-(((1-(1-(tert-butyl)piperidin-4-yl)-1H-1,2,3-triazol-4-yl)(3-(3-methoxyazetidine-1-carbonyl)phenyl)methyl)amino)-8-chloro-4-((3-chloro-4-fluorophenyl)amino)quinoline-3-carbonitrile], the concentration for a half-maximal effect (EC50) in assay [1] (setting [3]) was 112 nM. In addition, the concentration for half-maximal inhibition (IC50) in assay [2] (setting [5]) came out at 2 nM.

With `Cn1cc(Nc2c(C#N)cnc3c(Cl)cc(N[C@@H](c4ccccc4)c4c[nH]nn4)cc23)ccc1=O` [Example 482, (S)-8-chloro-4-((1-methyl-6-oxo-1,6-dihydropyridin-3-yl)amino)-6-((phenyl (1H-1,2,3-triazol-4-yl)methyl)amino)quinoline-3-carbonitrile], the EC50 in assay [1] (setting [3]) was above 10000 nM. Moreover, the IC50 in assay [2] (setting [5]) is 332 nM.

Consider `[2H][C@](Nc1cc(Cl)c2ncc(C#N)c(NCC(C)(C)CC#N)c2c1)(c1ccc(F)cc1)c1cn(C2CC2)nn1` [Example 134, (S)-8-chloro-4-((3-cyano-2,2-dimethylpropyl)amino)-6-(((1-cyclopropyl-1H-1,2,3-triazol-4-yl)(4-fluorophenyl)methyl-d)amino)quinoline-3-carbonitrile], for which the EC50 in assay [1] (setting [3]) is 142 nM. For the same compound, in assay [2] (setting [4]), the IC50 turned out to be 6 nM.

Regarding `CC(C)(C)CNc1c(C#N)cnc2c(C#N)cc(N[C@H](c3cn(C4(c5ccncc5)CC4)nn3)c3ccccc3Cl)cc12` [Example 1011, (S)-6-(((2-chlorophenyl)(1-(1-(pyridin-4-yl)cyclopropyl)-1H-1,2,3-triazol-4-yl)methyl)amino)-4-(neopentylamino) quinoline-3,8-dicarbonitrile], the EC50 in assay [1] (setting [6]) was 22 nM. Moreover, in assay [2] (setting [7]), the half-maximal inhibitory concentration (IC50) came to 3 nM.

On to `Cc1nonc1C(Nc1cc(Cl)c2ncc(C#N)c(Nc3ccc(F)c(Cl)c3)c2c1)c1ccc(F)cc1` (stereo not shown) [Example 805, 8-chloro-4-((3-chloro-4-fluorophenyl)amino)-6-(((4-fluorophenyl)(4-methyl-1,2,5-oxadiazol-3-yl)methyl)amino)quinoline-3-carbonitrile], for which the EC50 in assay [1] (setting [3]) was above 1000 nM. For the same compound, the concentration for half-maximal inhibition (IC50) in assay [2] (setting [5]) worked out at 588 nM.

As for `[2H][C@](Nc1cc(Cl)c2ncc(C#N)c(N[C@@H]3CCCC[C@H]3CO)c2c1)(c1ccc(F)cc1)c1cn(C2CC2)nn1` [Example 235, 8-chloro-6-(((S)-(1-cyclopropyl-1H-1,2,3-triazol-4-yl)(4-fluorophenyl)methyl-d)amino)-4-(((1R,2R)-2-(hydroxymethyl)cyclohexyl)amino) quinoline-3-carbonitrile], the half-maximal effective concentration (EC50) in assay [1] (setting [3]) was at least 10000 nM. For the same compound, the concentration for half-maximal inhibition (IC50) in assay [2] (setting [4]) amounted to 605 nM.

As to `N#Cc1cnc2c(Cl)cc(N[C@H](c3cn(C4CC4)nn3)c3ccccc3Cl)cc2c1NCC12CC(C1)C2` [Example 928, (S)-4-((bicyclo[1.1.1]pentan-1-ylmethyl)amino)-8-chloro-6-(((2-chlorophenyl)(1-cyclopropyl-1H-1,2,3-triazol-4-yl)methyl)amino)quinoline-3-carbonitrile], the EC50 in assay [1] (setting [6]) was 443 nM. In addition, the IC50 in assay [2] (setting [7]) was 68 nM.

`CC[C@@H](Nc1c(C#N)cnc2c(Cl)cc(N[C@H](c3cnn(C(F)F)n3)c3cccc(F)c3F)cc12)c1ccccc1` [Example 426, 8-chloro-6-(((S)-(2-(difluoromethyl)-2H-1,2,3-triazol-4-yl)(2,3-difluorophenyl)methyl)amino)-4-(((R)-1-phenylpropyl)amino) quinoline-3-carbonitrile]: in assay [1] (setting [3]), the EC50 is above 10000 nM. For the same compound, in assay [2] (setting [5]), the concentration for half-maximal inhibition (IC50) amounted to 3150 nM.
